Target: T1, TbPTP1/TbPIP39 (Trypanosoma brucei, UniProt Q38AT7+Q38EW0)
T1 construct: gene Tb10.70.0070; His-TbPTP1 plus GST-TbPIP39 (recoded synthetic gene, pGEX4T1); biophysical preparations described in supplement
T1 sequence (Q38AT7 1-306): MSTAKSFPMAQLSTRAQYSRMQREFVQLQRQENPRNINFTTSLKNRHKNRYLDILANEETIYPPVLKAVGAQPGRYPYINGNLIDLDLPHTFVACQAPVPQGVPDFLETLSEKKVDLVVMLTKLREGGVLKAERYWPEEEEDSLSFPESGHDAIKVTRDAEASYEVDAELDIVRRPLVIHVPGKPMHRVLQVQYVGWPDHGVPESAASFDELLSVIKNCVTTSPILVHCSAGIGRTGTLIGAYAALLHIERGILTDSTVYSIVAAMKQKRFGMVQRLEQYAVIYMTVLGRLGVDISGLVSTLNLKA
T1 sequence (Q38EW0 1-343): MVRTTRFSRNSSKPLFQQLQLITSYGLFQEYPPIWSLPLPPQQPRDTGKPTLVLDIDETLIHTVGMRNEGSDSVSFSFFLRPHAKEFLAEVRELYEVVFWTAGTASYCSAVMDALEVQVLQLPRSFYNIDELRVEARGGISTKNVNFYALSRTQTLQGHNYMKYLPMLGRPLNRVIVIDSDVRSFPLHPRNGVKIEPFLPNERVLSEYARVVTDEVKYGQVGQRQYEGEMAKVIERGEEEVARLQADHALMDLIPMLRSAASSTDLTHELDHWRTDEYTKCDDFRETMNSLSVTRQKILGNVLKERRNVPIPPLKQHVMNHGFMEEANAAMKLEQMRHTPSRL
Assay: SPR, ligand-dependent TbPTP1-TbPIP39 interaction
Format: binding
Details: isocitrate-promoted complex formation, indirect evidence; TbPTP1 immobilised

In the case of `O=C(O)C[C@H](C(=O)O)[C@@H](O)C(=O)O` [isocitrate], the “SPR, ligand-dependent TbPTP1-TbPIP39 interaction” value is reported as “isocitrate, which does not stimulate differentiation, also promoted the interaction between TbPTP1 and wild type”.

Reference: publication PMC3798605, “Independent Pathways Can Transduce the Life-Cycle Differentiation Signal in Trypanosoma brucei” (PLoS Pathogens, 2013)
